This note sets out measurements from ChEMBL document CHEMBL5365539, “Selective modifications of lactose and N-acetyllactosamine with sulfate and aromatic bulky groups unveil unique structural insights in galectin-1-ligand recognition” (Bioorg Med Chem, 2023).

For assay [1], the target named is T1, Galectin-1 (Homo sapiens, UniProt P09382). Nature of the assay: Inhibition of asialofetuin binding to human recombinant Gal-1 transfected in Escherichia coli BL21 (DE3) incubated for 2 hrs by competitive solid-phase assay.
In assay [2] the target is T1, Galectin-1. Nature of the assay: Potency index, ratio of test compound IC50 to (2S,3R,4S,5R,6R)-2-(((2R,3S,4R,5R,6R)-4,5 dihydroxy-2-(hydroxymethyl)-6 methoxytetrahydro-2H-pyran-3-yl)oxy)-6(hydroxymethyl)tetrahydro-2H-pyran-3,4,5-triol IC50 for inhibition of asialofetuin binding to human recombinant Gal-1 transfected in Escherichia coli BL21 (DE3) incubated for 2 hrs by competitive solid-phase assay.

Assay [3] addresses T1, Galectin-1. Nature of the assay: Binding affinity to human recombinant Gal-1 assessed as change in enthalpy by ITC analysis. In general terms: Isothermal titration calorimetry measures the heat released or taken up as one component is titrated into another.
For assay [4], the target named is T1, Galectin-1. Nature of the assay: Binding affinity to human recombinant Gal-1 assessed as change in entropy by ITC analysis.
The target in assay [5] is T1, Galectin-1. The assay is described as follows: Binding affinity to human recombinant Gal-1 assessed as gibbs free energy change by ITC analysis.
For assay [6], the target named is T1, Galectin-1. Nature of the assay: Binding affinity to human recombinant Gal-1 assessed as dissociation constant by ITC analysis.
In assay [7] the target is T1, Galectin-1. Nature of the assay: Binding affinity to human recombinant Gal-1 assessed as association constant by ITC analysis.

Each structure is given as a SMILES string.

T1 sequence (P09382 whole entry): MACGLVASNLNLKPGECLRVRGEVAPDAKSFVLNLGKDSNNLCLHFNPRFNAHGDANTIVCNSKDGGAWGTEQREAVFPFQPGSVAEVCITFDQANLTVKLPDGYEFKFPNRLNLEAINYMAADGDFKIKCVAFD

One may read the IC50 as the concentration needed to halve the response being measured. Take `C#CCO[C@@H]1O[C@H](CO)[C@@H](O[C@@H]2O[C@H](CO)[C@H](O)[C@H](OS(=O)(=O)O)[C@H]2O)[C@H](O)[C@H]1NC(C)=O`: the IC50 on Galectin-1 [1] is 4.8 mM. Also, the Ratio IC50 on Galectin-1 [2] was found to be 0.65.
As for `COc1cc(C=O)ccc1O[C@@H]1O[C@H](CO)[C@@H](O[C@@H]2O[C@H](CO)[C@H](O)[C@H](OS(=O)(=O)O)[C@H]2O)[C@H](O)[C@H]1O`, the IC50 at Galectin-1 [1] turned out to be 6.1 mM. The Ratio IC50 on Galectin-1 [2] was found to be 0.82.
The matching figures for `CC(=O)N[C@H]1[C@H](Oc2ccc([N+](=O)[O-])cc2)O[C@H](CO)[C@@H](O[C@@H]2O[C@H](CO)[C@H](O)[C@H](O)[C@H]2O)[C@@H]1O`: 5.7 mM and 0.78.
With `CC(=O)N[C@H]1C(O)O[C@H](CO)[C@@H](O[C@@H]2O[C@H](CO)[C@H](O)[C@H](O)[C@H]2O)[C@@H]1O` (stereo not given in full), the IC50 at Galectin-1 [1] came to 7.5 mM. Further, at Galectin-1 [2], the Ratio IC50 was 1.02.
The matching figures for `C#CCO[C@@H]1O[C@H](CO)[C@@H](O[C@@H]2O[C@H](CO)[C@H](O)[C@H](O)[C@H]2O)[C@H](O)[C@H]1NC(C)=O`: 10.7 mM and 1.45.
On to `C#CCO[C@@H]1O[C@H](CO)[C@@H](O[C@@H]2O[C@H](CO)[C@H](O)[C@H](OCC(=O)O)[C@H]2O)[C@H](O)[C@H]1NC(C)=O`, for which the IC50 at Galectin-1 [1] turned out to be 7.3 mM. In addition, the Ratio IC50 on Galectin-1 [2] was 0.99.
Turning to `CO[C@@H]1O[C@H](CO)[C@@H](O[C@@H]2O[C@H](CO)[C@H](O)[C@H](O)[C@H]2O)[C@H](O)[C@H]1O`, the IC50 on Galectin-1 [1] stood at 7.4 mM.
Turning to `C#CCO[C@@H]1O[C@H](CO)[C@@H](O[C@@H]2O[C@H](CO)[C@H](O)[C@H](O)[C@H]2O)[C@H](O)[C@H]1O`, the IC50 on Galectin-1 [1] came out at 6.1 mM. Also, the Ratio IC50 at Galectin-1 [2] worked out at 0.83.
Turning to `COc1cc(CO)ccc1O[C@@H]1O[C@H](CO)[C@@H](O[C@@H]2O[C@H](CO)[C@H](O)[C@H](O)[C@H]2O)[C@H](O)[C@H]1O`, the IC50 at Galectin-1 [1] was determined as 10.8 mM. For the same compound, the Ratio IC50 at Galectin-1 [2] is 1.46.
The term Kd denotes the equilibrium constant for the complex coming apart. For `COc1cc(C(=O)OC(C)(C)C)ccc1O[C@@H]1O[C@H](CO)[C@@H](O[C@@H]2O[C@H](CO)[C@H](O)[C@H](OS(=O)(=O)O)[C@H]2O)[C@H](O)[C@H]1O`, on Galectin-1 [3], the deltaH was -6.93 kcal/mol. At Galectin-1 [4], the deltaS was -21.3 J/mol.K. For the same compound, the deltaG on Galectin-1 [5] was -5.38 kcal/mol. In addition, at Galectin-1 [1], the IC50 amounted to 3.2 mM. Further, on Galectin-1 [6], the Kd worked out at 0.117 mM. Besides, the Ka at Galectin-1 [7] is 8.6 10^3/M. For the same compound, the Ratio IC50 at Galectin-1 [2] turned out to be 0.43.
In the case of `COc1cc(C(=O)OC(C)(C)C)ccc1O[C@@H]1O[C@H](CO)[C@@H](O[C@@H]2O[C@H](CO)[C@H](O)[C@H](O)[C@H]2O)[C@H](O)[C@H]1O`, on Galectin-1 [3], the deltaH was -6.67 kcal/mol. Further, the deltaS on Galectin-1 [4] is -23.1 J/mol.K. In addition, on Galectin-1 [5], the deltaG is -5.02 kcal/mol. Further, the IC50 at Galectin-1 [1] is 3.6 mM. The Kd at Galectin-1 [6] stood at 0.206 mM. In addition, the Ka at Galectin-1 [7] was 4.9 10^3/M. Also, the Ratio IC50 at Galectin-1 [2] stood at 0.48.
On to `OC[C@H]1O[C@@H](O[C@H]2[C@H](O)[C@@H](O)C(O)O[C@@H]2CO)[C@H](O)[C@@H](O)[C@H]1O` (stereo not given in full), for which, at Galectin-1 [3], the deltaH is -6.79 kcal/mol. The deltaS at Galectin-1 [4] was -28 J/mol.K. Moreover, the Ka on Galectin-1 [7] was 3.2 10^3/M.
As to `COc1cc(C(=O)O)ccc1O[C@@H]1O[C@H](CO)[C@@H](O[C@@H]2O[C@H](CO)[C@H](O)[C@H](OS(=O)(=O)O)[C@H]2O)[C@H](O)[C@H]1O`, at Galectin-1 [3], the deltaH was -5.28 kcal/mol. Also, the deltaS on Galectin-1 [4] is -6.2 J/mol.K. In addition, the deltaG at Galectin-1 [5] was -4.83 kcal/mol. Further, the IC50 on Galectin-1 [1] worked out at 3.9 mM. At Galectin-1 [6], the Kd came out at 0.284 mM. Besides, the Ka on Galectin-1 [7] is 3.5 10^3/M. The Ratio IC50 on Galectin-1 [2] came to 0.53.
On to `COC(=O)c1ccc(O[C@@H]2O[C@H](CO)[C@@H](O[C@@H]3O[C@H](CO)[C@H](O)[C@H](O)[C@H]3O)[C@H](O)[C@H]2O)c(OC)c1`, for which the IC50 on Galectin-1 [1] is 7.5 mM. Also, the Ratio IC50 at Galectin-1 [2] was 1.02.
For the compound `COc1cc(CCC(=O)O)ccc1O[C@@H]1O[C@H](CO)[C@@H](O[C@@H]2O[C@H](CO)[C@H](O)[C@H](O)[C@H]2O)[C@H](O)[C@H]1O`, the IC50 on Galectin-1 [1] was 4.1 mM. In addition, the Ratio IC50 at Galectin-1 [2] came out at 0.56.
The matching figures for `CC(=O)N[C@H]1[C@H](Oc2ccc([N+](=O)[O-])cc2)O[C@H](CO)[C@@H](O[C@@H]2O[C@H](CO)[C@H](O)[C@H](OS(=O)(=O)O)[C@H]2O)[C@@H]1O`: 6.1 mM and 0.83.
Turning to `O=[N+]([O-])c1ccc(O[C@@H]2O[C@H](CO)[C@@H](O[C@@H]3O[C@H](CO)[C@H](O)[C@H](O)[C@H]3O)[C@H](O)[C@H]2O)cc1`, the IC50 on Galectin-1 [1] amounted to 6.6 mM. Further, at Galectin-1 [2], the Ratio IC50 is 0.89.
`O=[N+]([O-])c1ccc(O[C@@H]2O[C@H](CO)[C@@H](O[C@@H]3O[C@H](CO)[C@H](O)[C@H](OS(=O)(=O)O)[C@H]3O)[C@H](O)[C@H]2O)cc1`: the IC50 on Galectin-1 [1] was 5.9 mM. Besides, the Ratio IC50 on Galectin-1 [2] was 0.79.
The matching figures for `C#CCO[C@@H]1O[C@H](CO)[C@@H](O[C@@H]2O[C@H](CO)[C@H](O)[C@H](O[C@]3(C(=O)O)C[C@H](O)[C@@H](NC(C)=O)[C@H]([C@@H](O)[C@H](O)CO)O3)[C@H]2O)[C@H](O)[C@H]1NC(C)=O`: 9.7 mM and 1.31.
The matching figures for `COc1cc(/C=C/C(=O)O)ccc1O[C@@H]1O[C@H](CO)[C@@H](O[C@@H]2O[C@H](CO)[C@H](O)[C@H](O)[C@H]2O)[C@H](O)[C@H]1O`: 4.8 mM and 0.65.
